# Measurements taken from patent publication US20260297542A1, “HERBICIDE RESISTANT PLANTS” (SYNGENTA CROP PROTECTION AG, priority 2023, published 2026).
# Positions count from the first letter of the chain named.
# What was measured:
# [1] = molecular target: T1, AtPPO1 S305L G404A L479N (SEQ ID NO.137) (Arabidopsis thaliana, UniProt P55826, G404A/L479N/S305L); experiment: fluorescent Protoporphyrinogen Oxidase assay, crude extract; type: biochemical; details: read-out: percentage inhibition
# T1 construct: made in house; host or cells: E. coli BL21 (DE3) hemG, crude extract
# T1 sequence (P55826 35-537 S305L/G404A/L479N): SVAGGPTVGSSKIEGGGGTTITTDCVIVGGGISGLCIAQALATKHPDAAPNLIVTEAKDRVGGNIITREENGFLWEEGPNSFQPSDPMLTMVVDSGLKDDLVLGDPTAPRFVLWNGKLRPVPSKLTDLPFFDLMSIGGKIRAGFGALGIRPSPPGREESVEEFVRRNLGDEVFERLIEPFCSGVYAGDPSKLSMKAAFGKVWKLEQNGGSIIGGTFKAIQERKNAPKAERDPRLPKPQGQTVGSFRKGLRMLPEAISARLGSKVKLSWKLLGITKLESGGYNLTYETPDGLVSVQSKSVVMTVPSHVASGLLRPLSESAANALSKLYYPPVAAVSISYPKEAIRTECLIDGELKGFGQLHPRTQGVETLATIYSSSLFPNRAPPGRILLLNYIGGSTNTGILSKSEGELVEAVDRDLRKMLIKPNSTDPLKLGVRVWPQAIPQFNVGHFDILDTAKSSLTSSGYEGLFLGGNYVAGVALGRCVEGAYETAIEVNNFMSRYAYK
# Procedure: (§1) A pET24 plasmid containing a DNA sequence encoding each identified variant mutant of AtPPO1 derived from Arabidopsis thaliana, codon-optimised for expression in E. coli, and under control of a T7 promoter, was synthesised by Twist Bioscience. This plasmid was expressed in E. coli BL21 (DE3) hemG with 50 μg/mL kanamycin and 25 μg/mL chloramphenicol selection. Overnight cultures grown at 37° C. were used to inoculate 150 ml AIM (AIM-Terrific Broth Base including Trace elements, Formedium) in 500 ml shake flasks at a ratio of 1:100. Cultures were grown at 37° C., 200 rpm for 3 hours and then overnight at 26° C. Cells were harvested by 4° C. centrifugation for 20 minutes at 600 rpm. Cells were stored at −80° C. until extraction. 0.5-1 g of cell pellet from was thawed and resuspended in ratio of 1:1 in lysis buffer (20 mM Tris pH8, 500 mM sodium chloride, 10% glycerol, 1× complete Protease EDTA-free Inhibitor Tablet (Roche)). The resuspension was sonicated at 50% using 10-20 cycles of 10 seconds, 20 seconds off. After sonication Triton X-100 was added to the lysates at a final concentration of 0.5%. The lysates were centrifuged at 13.00 rpm for 10 min at 4° C. The crude extracts (i.e, supernatants) were stored at −80° C. Protein concentration was measured and calculated using the absorbance at 280 nm. Extracts were diluted 1 in 4 and 10 uL was analysed by SDS PAGE.
# (§2) Variant crude extracts were assayed in a fluorescent Protoporphyrinogen Oxidase assay in black 384 well plates with a clear bottom. The total volume of the reaction mixture was 100 ul and contained 100 mM K2HPO4 pH7.2, 1 mM Na2EDTA, 5 mM DTT, 20% glycerol (v/v), 0.025% Tween 20 (v/v). Reactions were started with addition of 1 uM protoporphyrinogen IX final assay concentration. Fluorescence was monitored over 30 min using a Tecan plate reader with an excitation wavelength of 405 nm, emission wavelength of 635 nm, gain of 90 and 15 flashes. 10 ul of 3-fold serial dilution of crude extract in 100 mM K2HPO4 pH7.2, 1 mM Na2EDTA, 5 mM DTT, 20% glycerol (v/v), 0.05% Tween 20 (v/v) was tested in the assay against 1% DMSO and 100 ppm herbicide B to determine the correct amount of crude extract to add to the assay to observe activity. 10 ul of the appropriate crude extract dilution was then tested in the fluorescent Protoporphyrinogen Oxidase assay against DMSO and 10-fold dose response of each compound (herbicides A to E) with a top rate of 100 ppm.
# (§3) The percentage inhibition was calculated as the activity in the presence of one of four concentrations of each herbicide compound A to E (note that the compounds labelled as A to E are identified hereinabove in the relevant section of the description) as a percentage of the enzyme activity in DMSO (Table 5).
# [2] = molecular target: T2, AtPPO1 S305L Y362F G404A (SEQ ID NO.129) (Arabidopsis thaliana, UniProt P55826, G404A/S305L/Y362F); experiment: as above; type: biochemical; details: read-out: percentage inhibition
# T2 construct: made in house; host or cells: E. coli BL21 (DE3) hemG, crude extract
# T2 sequence (P55826 35-537 S305L/Y362F/G404A): T1 sequence (P55826 35-537 S305L/G404A/L479N) with Y328F, N445L
# Procedure: as §1, §2, §3
Compound,inhibition at 0.1 ppm [1] [%],inhibition at 1 ppm [1] [%],inhibition at 10 ppm [1] [%],inhibition at 100 ppm [1] [%],inhibition at 0.1 ppm [2] [%],inhibition at 1 ppm [2] [%],inhibition at 10 ppm [2] [%],inhibition at 100 ppm [2] [%]
"CCOC(=O)C1(C)CC(c2cc(-n3c(=O)cc(C(F)(F)F)n(C)c3=O)c(F)cc2Cl)=NO1 (stereo not shown) [Herbicide C, 3-(2-chloro-4-fluoro-5-(3-methyl-2,6-dioxo-4-trifluoromethyl-3,6-dihydropyrimidin-1(2H)-yl)phenyl)-5-methyl-4,5-dihydroisoxazole-5-carboxylic acid ethyl ester]",26,90,100,100,24,76,93,100
"C#CCN1C(=O)C(F)(F)Oc2cc(F)c(-n3c(=O)n(C)c(=S)n(C)c3=O)cc21 [Herbicide B, trifludimoxazin]",77,98,100,100,70,93,97,100
"CCOC(=O)[C@]1(C)CC(c2cc(-n3c(=O)n(C)c(=S)n(C)c3=O)c(F)cc2Cl)=NO1 [Herbicide D, ethyl (5S)-3-[2-chloro-5-(3,5-dimethyl-2,6-dioxo-4-thioxo-1,3,5-triazinan-1-yl)-4-fluoro-phenyl]-5-methyl-4H-isoxazole-5-carboxylate]",12,58,98,100,9,45,83,96
"CCOC(=O)COc1ncccc1Oc1cc(-n2c(=O)cc(C(F)(F)F)n(C)c2=O)c(F)cc1Cl [Herbicide A, epyrifenacil]",24,93,100,100,25,78,92,100
"CC(C)N(C)S(=O)(=O)NC(=O)c1cc(-n2c(=O)cc(C(F)(F)F)n(C)c2=O)c(F)cc1Cl [Herbicide E, saflufenacil]",22,66,100,96,15,53,84,100
